Results as given in patent publication US9512107B2, “Therapeutically active compositions and their methods of use” (Agios Pharmaceuticals, Inc., priority 2012, dated 2016).
Where a chain is given by its changes, count along the chain named. pIC50: −log10 of the molar value.

Key:
IDH2 R140Q = biological target: T1, IDH2 R140Q (Homo sapiens, UniProt P48735, R140Q); experiment: IDH2 R140Q enzymatic assay (cofactor depletion, similar format); type: biochemical; conditions: read-out: Enz R140Q
T1 sequence (P48735 40-452 R140Q): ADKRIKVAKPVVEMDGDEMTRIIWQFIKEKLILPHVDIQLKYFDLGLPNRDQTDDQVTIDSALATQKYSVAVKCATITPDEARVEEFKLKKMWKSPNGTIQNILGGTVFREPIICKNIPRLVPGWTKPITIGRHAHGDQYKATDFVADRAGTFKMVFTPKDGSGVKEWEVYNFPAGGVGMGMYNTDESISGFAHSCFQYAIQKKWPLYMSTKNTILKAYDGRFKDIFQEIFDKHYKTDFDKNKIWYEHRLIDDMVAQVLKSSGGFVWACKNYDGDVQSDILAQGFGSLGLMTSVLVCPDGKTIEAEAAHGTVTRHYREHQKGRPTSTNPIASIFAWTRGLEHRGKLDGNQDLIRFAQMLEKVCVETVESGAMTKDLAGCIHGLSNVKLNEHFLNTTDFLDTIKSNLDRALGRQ

IDH2 R172K = biological target: T2, IDH2 R172K (Homo sapiens, UniProt P48735, R172K); experiment: IDH2 R172K enzymatic assay (NADPH cofactor depletion, diaphorase/resazurin readout); type: biochemical; conditions: read-out: Enz R172K
T2 sequence (P48735 40-452 R172K): T1 sequence (P48735 40-452 R140Q) with Q101R, R133K
Outline: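 Test compounds are incubated with the mutant enzyme for one hour at ambient temperature. A substrate mix of 50 μM NADPH plus 6.3 mM α-KG initiates turnover, which proceeds for one hour. Diaphorase and resazurin then halt the reaction by depleting the cofactor and convert the remaining NADPH into a fluorescent signal.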

[1] = tested on: U87MG pLVX-IDH2 R140Q-neo cells; experiment: U87MG pLVX-IDH2 R140Q-neo cell based assay, 2-HG in media by LC-MS at 48 hours; conditions: Homo sapiens, U-87 MG
Outline: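 U87MG cells stably expressing IDH2 R140Q were seeded overnight, then exposed to compound at 0.2% final DMSO at 37 °C, 5% CO2. 2-HG in the medium was quantified by LC-MS at 48 h. Growth inhibition was read by CellTiter-Glo luminescence at 72 h.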

With `Fc1ccc(Nc2nc(NC3[C@H]4COC[C@@H]34)nc(-c3ccccc3F)n2)cn1` (stereo partly drawn) [Compound 637, 6-(2-Fluoro-phenyl)-N-(6-fluoro-pyridin-3-yl)-N′-(3-oxa-bicyclo[3.1.0]hex-6-yl)-[1,3,5]triazine-2,4-diamine] the pIC50 (IDH2 R140Q) was 6.00 to 7.00, the pIC50 (IDH2 R172K) was 6.00 to 7.00 and the pIC50 [1] was greater than 7.00.

For `Fc1cncc(Nc2nc(NC3[C@H]4COC[C@@H]34)nc(-c3ccccc3F)n2)c1` (stereo partly drawn) [Compound 638, 6-(2-Fluoro-phenyl)-N-(5-fluoro-pyridin-3-yl)-N′-(3-oxa-bicyclo[3.1.0]hex-6-yl)-[1,3,5]triazine-2,4-diamine], the pIC50 (IDH2 R140Q) was 6.00 to 7.00, the pIC50 (IDH2 R172K) was 6.00 to 7.00 and the pIC50 [1] was greater than 7.00.

`CC(C)Nc1nc(Nc2ccnc(C(F)(F)F)c2)nc(-c2cccc(CO)c2)n1` [Compound 639, {3-[4-Isopropylamino-6-(2-trifluoromethyl-pyridin-4-ylamino)-[1,3,5]triazin-2-yl]-phenyl}-methanol] showed a pIC50 (IDH2 R140Q) of 6.00 to 7.00, a pIC50 (IDH2 R172K) greater than 7.00 and a pIC50 [1] greater than 7.00.

`CC(C)Nc1nc(Nc2ccnc(C(F)(F)F)c2)nc(-c2cccc(O)c2)n1` [Compound 640, 3-[4-Isopropylamino-6-(2-trifluoromethyl-pyridin-4-ylamino)-[1,3,5]triazin-2-yl]-phenol] was tested, and the pIC50 (IDH2 R140Q) was greater than 7.00, the pIC50 (IDH2 R172K) was greater than 7.00 and the pIC50 [1] was greater than 7.00.

Work on `CC(C)(O)CNc1nc(Nc2ccnc(C(F)(F)F)c2)nc(-c2cccc(O)c2)n1` [Compound 641, 3-(4-((2-hydroxy-2-methylpropyl)amino)-6-((2-(trifluoromethyl)pyridin-4-yl)amino)-1,3,5-triazin-2-yl)phenol] yielded a pIC50 (IDH2 R140Q) of 6.00 to 7.00, a pIC50 (IDH2 R172K) greater than 7.00 and a pIC50 [1] greater than 7.00.

With `CC(C)Nc1nc(Nc2cc(F)cc(F)c2)nc(-c2cc(O)cc(O)c2)n1` [Compound 642, 5-(4-((3,5-difluorophenyl)amino)-6-(isopropylamino)-1,3,5-triazin-2-yl)benzene-1,3-diol] the pIC50 (IDH2 R140Q) was 6.00 to 7.00, the pIC50 (IDH2 R172K) was greater than 7.00 and the pIC50 [1] was greater than 7.00.

With `CC(C)Nc1nc(Nc2cc(F)cc(F)c2)nc(-c2ccc(N)nc2)n1` [Compound 645, 6-(6-aminopyridin-3-yl)-N2-(3,5-difluorophenyl)-N4-isopropyl-1,3,5-triazine-2,4-diamine] the pIC50 (IDH2 R140Q) was 6.00 to 7.00, the pIC50 (IDH2 R172K) was 6.00 to 7.00 and the pIC50 [1] was greater than 7.00.

In the case of `CC(C)(C)Nc1nc(Nc2cc(F)cc(S(C)(=O)=O)c2)nc(-c2cccc(O)c2)n1` [Compound 646, 3-(4-(tert-butylamino)-6-((3-fluoro-5-(methylsulfonyl)phenyl)amino)-1,3,5-triazin-2-yl)phenol], the pIC50 (IDH2 R140Q) was 6.00 to 7.00, the pIC50 (IDH2 R172K) was greater than 7.00 and the pIC50 [1] was greater than 7.00.

Work on `CC(C)Nc1nc(Nc2ccnc(C(F)(F)F)c2)nc(-c2cc(F)cc(Cl)c2)n1` [Compound 647, 6-(3-chloro-5-fluorophenyl)-N2-isopropyl-N4-(2-(trifluoromethyl)pyridin-4-yl)-1,3,5-triazine-2,4-diamine] yielded a pIC50 (IDH2 R140Q) of 6.00 to 7.00, a pIC50 (IDH2 R172K) of 6.00 to 7.00 and a pIC50 [1] greater than 7.00.

Molecule `COc1ncccc1-c1nc(Nc2ccnc(C(F)(F)F)c2)nc(NC(C)C)n1` [Compound 648, N2-isopropyl-6-(2-methoxypyridin-3-yl)-N4-(2-(trifluoromethyl)pyridin-4-yl)-1,3,5-triazine-2,4-diamine] has a pIC50 (IDH2 R140Q) of 6.00 to 7.00, a pIC50 (IDH2 R172K) of 6.00 to 7.00 and a pIC50 [1] greater than 7.00.

With `CC(C)Nc1nc(Nc2cc(F)cc(F)c2)nc(-c2cnc(N)nc2)n1` [Compound 649, 6-(2-aminopyrimidin-5-yl)-N2-(3,5-difluorophenyl)-N4-isopropyl-1,3,5-triazine-2,4-diamine] the pIC50 (IDH2 R140Q) was greater than 7.00, the pIC50 (IDH2 R172K) was 6.00 to 7.00 and the pIC50 [1] was 6.00 to 7.00.

With `CC(C)Nc1nc(Nc2ccnc(C(F)(F)F)c2)nc(-c2cccc(=O)[nH]2)n1` [Compound 650, 6-(4-(isopropylamino)-6-((2-(trifluoromethyl)pyridin-4-yl)amino)-1,3,5-triazin-2-yl)pyridin-2(1H)-one] the pIC50 (IDH2 R140Q) was 6.00 to 7.00, the pIC50 (IDH2 R172K) was 5.00 to 6.00 and the pIC50 [1] was 6.00 to 7.00.

`CC(C)Nc1nc(Nc2ccnc(C(F)(F)F)c2)nc(-c2cccc(C(N)=O)c2)n1` [Compound 651] gave a pIC50 (IDH2 R140Q) of 6.00 to 7.00, a pIC50 (IDH2 R172K) of 6.00 to 7.00 and a pIC50 [1] greater than 7.00.

In the case of `CC(C)Nc1nc(Nc2ccnc(C(F)(F)F)c2)nc(-c2cccc(C(O)C(F)(F)F)c2)n1` (stereo not drawn) [Compound 652, 2,2,2-trifluoro-1-(3-(4-(isopropylamino)-6-((2-(trifluoromethyl)pyridin-4-yl)amino)-1,3,5-triazin-2-yl)phenyl)ethanol], the pIC50 (IDH2 R140Q) was 6.00 to 7.00, the pIC50 (IDH2 R172K) was 6.00 to 7.00 and the pIC50 [1] was 6.00 to 7.00.

`CC(C)Nc1nc(Nc2ccnc(C(F)(F)F)c2)nc(-c2cccc([S+](C)[O-])c2)n1` (stereo not drawn) [Compound 653, N-Isopropyl-6-(3-methanesulfinyl-phenyl)-N′-(2-trifluoromethyl-pyridin-4-yl)-[1,3,5]triazine-2,4-diamine] gave a pIC50 (IDH2 R140Q) of 6.00 to 7.00, a pIC50 (IDH2 R172K) of 6.00 to 7.00 and a pIC50 [1] greater than 7.00.

`CC(C)Nc1nc(Nc2ccnc(C(F)(F)F)c2)nc(-c2cccc(CN)c2)n1` [Compound 654, 6-(3-(aminomethyl)phenyl)-N2-isopropyl-N4-(2-(trifluoromethyl)pyridin-4-yl)-1,3,5-triazine-2,4-diamine] was tested, and the pIC50 (IDH2 R140Q) was 6.00 to 7.00, the pIC50 (IDH2 R172K) was less than 5.00 and the pIC50 [1] was greater than 7.00.

With `COc1cc(Cl)cc(-c2nc(Nc3ccnc(C(F)(F)F)c3)nc(NC(C)C)n2)c1` [Compound 655, 6-(3-chloro-5-methoxyphenyl)-N2-isopropyl-N4-(2-(trifluoromethyl)pyridin-4-yl)-1,3,5-triazine-2,4-diamine] the pIC50 (IDH2 R140Q) was 6.00 to 7.00, the pIC50 (IDH2 R172K) was 6.00 to 7.00 and the pIC50 [1] was 6.00 to 7.00.

Molecule `CC(C)Nc1nc(Nc2ccnc(C(F)(F)F)c2)nc(-c2cccc(S(C)(=O)=O)c2)n1` [Compound 657, N-Isopropyl-6-(3-methanesulfonyl-phenyl)-N′-(2-trifluoromethyl-pyridin-4-yl)-[1,3,5]triazine-2,4-diamine] has a pIC50 (IDH2 R140Q) of 6.00 to 7.00, a pIC50 (IDH2 R172K) of 6.00 to 7.00 and a pIC50 [1] greater than 7.00.

In the case of `CC(C)Nc1nc(Nc2ccnc(C(F)(F)F)c2)nc(-c2cc(O)cc(F)c2)n1` [Compound 658, 3-Fluoro-5-[4-isopropylamino-6-(2-trifluoromethyl-pyridin-4-ylamino)-[1,3,5]triazin-2-yl]-phenol], the pIC50 (IDH2 R140Q) was 6.00 to 7.00, the pIC50 (IDH2 R172K) was greater than 7.00 and the pIC50 [1] was greater than 7.00.

Work on `CC(C)(C)OC(=O)N1CCC(Nc2nc(Nc3ccccc3)nc(-c3ccccc3)n2)CC1` [Compound 667, 4-(4-Phenyl-6-phenylamino-[1,3,5]triazin-2-ylamino)-piperidine-1-carboxylic acid tert-butyl ester] yielded a pIC50 (IDH2 R140Q) of 6.00 to 7.00, a pIC50 (IDH2 R172K) of 6.00 to 7.00 and a pIC50 [1] of 6.00 to 7.00.

`CC(C)Nc1nc(Nc2ccnc(C3(C#N)CC3)c2)nc(-c2cccc(C(F)(F)F)n2)n1` [Compound 669, 1-{4-[4-Isopropylamino-6-(6-trifluoromethyl-pyridin-2-yl)-[1,3,5]triazin-2-ylamino]-pyridin-2-yl}-cyclopropanecarbonitrile] gave a pIC50 (IDH2 R140Q) of 6.00 to 7.00, a pIC50 (IDH2 R172K) greater than 7.00 and a pIC50 [1] greater than 7.00.

`CC(C)(O)CNc1nc(Nc2cnc(F)c(Cl)c2)nc(-c2cccc(C(F)(F)F)n2)n1` [Compound 670, 1-[4-(5-Chloro-6-fluoro-pyridin-3-ylamino)-6-(6-trifluoromethyl-pyridin-2-yl)-[1,3,5]triazin-2-ylamino]-2-methyl-propan-2-ol] showed a pIC50 (IDH2 R140Q) of 6.00 to 7.00, a pIC50 (IDH2 R172K) of 6.00 to 7.00 and a pIC50 [1] greater than 7.00.
